In ChEMBL document CHEMBL1155253, “Synthesis, antitumor evaluation, molecular modeling and quantitative structure-activity relationship (QSAR) of some novel arylazopyrazolodiazine and triazine analogs” (Bioorg Med Chem, 2009) one finds Activity and MST data, which are given here for 3 molecules.

Common to all, as to type: organism-based, Ehrlich
Common to all, as to design: route oral

Data set [1] relates to Mus musculus. Kind of data set: Toxicity in Swiss albino mouse bearing mouse EAC cells assessed as hemoglobin level at 50 to 250 mg/kg/day, po after 14 days postimplantation. The following applies: in vivo, 336 h.
The subject of data set [2] is Mus musculus. The data set can be described thus: Toxicity in Swiss albino mouse bearing mouse EAC cells assessed as increase in body weight at 50 to 250 mg/kg/day, po. Conditions: in vivo.
Data set [3] has as its system Mus musculus. Kind of data set: Toxicity in Swiss albino mouse bearing mouse EAC cells assessed as hematocrit level at 50 to 250 mg/kg/day, po after 14 days postimplantation. Conditions: in vivo, 336 h.
Data set [4] deals with Mus musculus. Kind of data set: Toxicity in Swiss albino mouse bearing mouse EAC cells assessed as WBC count at 50 to 250 mg/kg/day, po after 14 days postimplantation. Conditions: in vivo, 336 h.
Data set [5] deals with Mus musculus. The data set can be described thus: Toxicity in Swiss albino mouse bearing mouse EAC cells assessed as mean survival time at 50 to 250 mg/kg/day, po. Conditions: in vivo.

`Nc1nn2c(c1/N=N/c1ccc(/N=N/c3ccccc3)cc1)NC(=O)CC2`: the Activity in the data set with Mus musculus [1] was 10.9 g/dL; with Mus musculus [2], “Toxic”; in the data set with Mus musculus [3], 43%; in the data set on Mus musculus [4], 12.8. Also, the MST in the data set on Mus musculus [5] amounted to 17.1 days.

On to `Nc1n[nH]c(/N=N/c2c(O)ccc3ccccc23)c1/N=N/c1ccc(/N=N/c2ccccc2)cc1`, for which the Activity is 10.5 g/dL in the data set on Mus musculus [1], “Toxic” in the data set with Mus musculus [2], 43.7% with Mus musculus [3] and 11.5 in the data set with Mus musculus [4]. For the same molecule, in the data set on Mus musculus [5], the MST is 17.8 days.

On to `O=c1[nH]cc(F)c(=O)[nH]1` [FLUOROURACIL], for which the Activity with Mus musculus [1] is 10 g/dL; in the data set on Mus musculus [2], “Toxic”; with Mus musculus [3] it was 42.3%; in the data set on Mus musculus [4], 13.8. Further, the MST in the data set on Mus musculus [5] was found to be 16.7 days.
